Drawing on patent US8658604B2, “Template-fixed beta-hairpin peptidomimetics with protease inhibitory activity” (Polyphor Ltd, priority 2005, dated 2014), this text covers IC50 for six compounds.

Where a SMILES comes first, the peptide text is derived from it.

The assay addresses T1, Elastase from human neutrophils (Homo sapiens, UniProt P08246).
T1 sequence (P08246 30-267): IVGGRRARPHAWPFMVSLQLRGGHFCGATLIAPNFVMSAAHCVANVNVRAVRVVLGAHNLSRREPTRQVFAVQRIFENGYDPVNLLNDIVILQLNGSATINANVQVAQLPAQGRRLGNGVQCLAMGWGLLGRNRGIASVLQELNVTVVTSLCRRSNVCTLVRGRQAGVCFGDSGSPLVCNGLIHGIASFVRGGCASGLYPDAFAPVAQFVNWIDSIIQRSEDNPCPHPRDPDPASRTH
The experiment in a line: Enzymatic assay, elastase. To be noted: Elastase IC50.

`CCCC[C@@H]1NC(=O)[C@H](CCC(N)=O)NC(=O)[C@H]2CCCN2C(=O)[C@H](Cc2ccccc2Cl)NC(=O)[C@@H]2CSSC[C@H](NC1=O)C(=O)N[C@@H]([C@@H](C)O)C(=O)N[C@@H](C)C(=O)N[C@@H](CO)C(=O)N[C@@H](CC1CCCCC1)C(=O)N1CCC[C@H]1C(=O)N1CCC[C@H]1C(=O)N[C@@H](CCC(N)=O)C(=O)N2` [compound 175] (HELM PEPTIDE1{[Nle].C.T.A.S.[Cha].P.P.Q.C.[O=C([C@H](Cc1ccccc1Cl)N[*:1])[*:2]].[dP].Q}$PEPTIDE1,PEPTIDE1,2:R3-10:R3|PEPTIDE1,PEPTIDE1,1:R1-13:R2$$$V2.0): the IC50 was found to be 12 nM. This counts as double-digit nanomolar.
As for `CCCCCCCC[C@@H]1NC(=O)[C@@H]2CCCN2C(=O)[C@H]2CCCN2C(=O)[C@H](Cc2ccccc2)NC(=O)[C@@H]2CSSC[C@H](NC1=O)C(=O)N[C@@H]([C@@H](C)O)C(=O)N[C@@H](C)C(=O)N[C@@H](CO)C(=O)N[C@@H](CC1CCCCC1)C(=O)N1CCC[C@H]1C(=O)N1CCC[C@H]1C(=O)N[C@@H](CCC(N)=O)C(=O)N2` [Ex. 157] (HELM PEPTIDE1{[CCCCCCCC[C@H](N[*:1])C(=O)[*:2]].C.T.A.S.[Cha].P.P.Q.C.F.[dP].P}$PEPTIDE1,PEPTIDE1,2:R3-10:R3|PEPTIDE1,PEPTIDE1,1:R1-13:R2$$$V2.0), the figure is 7 nM; as for `CCCCCCCC[C@@H]1NC(=O)[C@H](CO)NC(=O)[C@H](C)NC(=O)[C@H]([C@@H](C)O)NC(=O)[C@@H]2CSSC[C@H](NC(=O)[C@H](CCC(N)=O)NC(=O)[C@@H]3CCCN3C(=O)[C@@H]3CCCN3C1=O)C(=O)N[C@@H](Cc1ccc(O)cc1)C(=O)N1CCC[C@@H]1C(=O)N1CCC[C@H]1C(=O)N[C@@H](CCc1ccccc1)C(=O)N2` [Ex. 161] (HELM PEPTIDE1{[O=C([C@H](CCc1ccccc1)N[*:1])[*:2]].C.T.A.S.[CCCCCCCC[C@H](N[*:1])C(=O)[*:2]].P.P.Q.C.Y.[dP].P}$PEPTIDE1,PEPTIDE1,2:R3-10:R3|PEPTIDE1,PEPTIDE1,1:R1-13:R2$$$V2.0), 6 nM.
Regarding `CC[C@H](C)[C@@H]1NC(=O)[C@H](CO)NC(=O)[C@H](C)NC(=O)[C@H]([C@@H](C)O)NC(=O)[C@@H]2CSSC[C@H](NC(=O)[C@H](CCC(N)=O)NC(=O)[C@@H]3CCCN3C(=O)[C@@H]3CCCN3C1=O)C(=O)N[C@@H](Cc1ccc(O)cc1)C(=O)N1CCC[C@@H]1C(=O)N[C@@H](CCC(N)=O)C(=O)N[C@@H](CCc1ccccc1)C(=O)N2` [compound 173] (HELM PEPTIDE1{[O=C([C@H](CCc1ccccc1)N[*:1])[*:2]].C.T.A.S.I.P.P.Q.C.Y.[dP].Q}$PEPTIDE1,PEPTIDE1,2:R3-10:R3|PEPTIDE1,PEPTIDE1,1:R1-13:R2$$$V2.0), the IC50 was 12 nM.
Regarding `CCCC[C@@H]1NC(=O)[C@@H]2CCCN2C(=O)[C@H]2CCCN2C(=O)[C@H](Cc2ccc(O)cc2)NC(=O)[C@@H]2CSSC[C@H](NC1=O)C(=O)N[C@@H]([C@@H](C)O)C(=O)N[C@@H](C)C(=O)N[C@@H](CO)C(=O)N[C@@H](CCCC)C(=O)N1CCC[C@H]1C(=O)N1CCC[C@H]1C(=O)N[C@@H](CCC(N)=O)C(=O)N2` [Ex. 79] (HELM PEPTIDE1{[Nle].C.T.A.S.[Nle].P.P.Q.C.Y.[dP].P}$PEPTIDE1,PEPTIDE1,2:R3-10:R3|PEPTIDE1,PEPTIDE1,1:R1-13:R2$$$V2.0), inhibition was half-maximal at 66 nM (IC50). This IC50 is about 5.5-fold higher than that of the compound before.
With `CC[C@H](C)[C@@H]1NC(=O)[C@H](CO)NC(=O)[C@H](C)NC(=O)[C@H]([C@@H](C)O)NC(=O)[C@H](CCC(N)=O)NC(=O)[C@H](CCc2ccccc2)NC(=O)[C@@H]2CCCN2C(=O)[C@H]2CCCN2C(=O)[C@H](Cc2ccc(O)cc2)NC(=O)[C@H]([C@@H](C)O)NC(=O)[C@H](CCC(N)=O)NC(=O)[C@@H]2CCCN2C(=O)[C@@H]2CCCN2C1=O` [Ex. 142] (HELM PEPTIDE1{[O=C([C@H](CCc1ccccc1)N[*:1])[*:2]].Q.T.A.S.I.P.P.Q.T.Y.[dP].P}$PEPTIDE1,PEPTIDE1,1:R1-13:R2$$$V2.0) the figure was 16 nM.
